The record followed here is patent EP4570271A1, “METAL-PHOSPHOLIPID COMPLEX, METAL-PHOSPHOLIPID COMPLEX PARTICLE, DRUG-LIPID PARTICLE, METHOD FOR PREPARING SAME, AND USE THEREOF” (priority 2022, dated 2024).

Structures are written as SMILES.

As usually defined, the IC50 is the concentration at which inhibition is half-maximal. The low end stands for greater potency in that assay, the high end for weaker potency in that assay.

The assay deals with 293T cells. As to the kind of experiment: cells. The assay is classed as cell-based. The note with it: Homo sapiens, HEK-293T.

`CCCCCCCCC(CCCCCC)C(=O)OCCCCCCN(CCCCO)CCCCCCOC(=O)C(CCCCCC)CCCCCCCC` (stereo not shown) [ALC0315] gave a half-maximal inhibitory concentration (IC50) (Table 2-2, 48 hours, CCK8) of 145 µM and an IC50 (Table 4-3, CCK8) of 145 µM.

For `CCCCCCCC/C=C\CCCCCCCC(=O)OC[C@H](C[N+](C)(C)C)OC(=O)CCCCCCC/C=C\CCCCCCCC` [DOTAP, N-(2,3-dioleoyloxy)propyl)-N,N,N-trimethylammonium chloride], the IC50 is, setting by setting: (Table 2-2, 48 hours, CCK8) 40.7 µM; (Table 4-3, CCK8) 40.7 µM.
